Values of other authors, collected in patent US20090030057A1, “Pharmaceutical composition of telmisartan” (priority 2005, published 2009).
Where two headings read alike, the source gives them in different places.

For `CCCc1nc2c(C)cc(-c3nc4ccccc4n3C)cc2n1Cc1ccc(-c2ccccc2C(=O)O)cc1` [Telmisartan, 4′-[2-n-propyl-4-methyl-6-(1-methylbenzimid-azol-2-yl)benzimidazol-1-ylmethyl]biphenyl-2-carboxylic acid], the solubility (in a strong acid (with the exception of hydrochloric acid)) is listed as “sparingly soluble”, the solubility (in a strong base) is listed as “soluble” and the solubility (in hydrochloric acid) is listed as “insoluble”. The solubility (in water or an aqueous solution in the pH range of 3 to 9) was “practically insoluble”.
